# Assay results published in patent US9561231B2 (AbbVie Inc., priority 2012, dated 2017).
# Assays:
# [1] = target: T1, second (BD2: amino acids E352-E168) bromodomain of BRD4 (Homo sapiens, UniProt O60885); assay: TR-FRET bromodomain binding assay, BRD4 BD2; conditions: TR-FRET assay protocol (A-G, compound concentration range); Ki calculated from IC50, probe Kd and probe concentration; read-out: TR-FRET Binding Ki: BRD4 (BDII_E352-M457)
# T1 construct: protocol
# Outline: (§1)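 Displacement of an Alexa647-labelled BET-inhibitor from His-tagged BD1 (K57-E168) or BD2 ([…]) measured by TR-FRET in pH 6.0 sodium phosphate buffer with NaCl, EDTA, Triton X-100 and DTT.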
# [2] = tested on: breast cancer cell line MX-1; assay: MX-1 cell line proliferation assay (3-day); assay type: cell-based; conditions: Homo sapiens, MX1; MX-1 cells, 72 h incubation, Cell Titer Glo; read-out: Cellular proliferation: EC50
# Experimental: The impact of compounds of the Examples on cancer cell proliferation was determined using the breast cancer cell line MX-1 (ATCC) in a 3-day proliferation assay. MX-1 cells were maintained in RPMI supplemented with 10% FBS at 37° C. and an atmosphere of 5% CO2. For compound testing, MX-1 cells were plated in 96-well black bottom plates at a density of 5000 cells/well in 90 μL of culture media and incubated at 37° overnight to allow cell adhesion and spreading. Compound dilution series were prepared in DMSO via a 3-fold serial dilution from 3 mM to 0.1 μM. The DMSO dilution series were then diluted 1:100 in phosphate buffered saline, and 10 μL of the resulted solution were added to the appropriate wells of the MX-1 cell plate. The final compound concentrations in the wells were 3, 1, 0.3, 0.1, 0.03, 0.01, 0.003, 0.001, 0.0003 and 0.0001 μM.
# Luminescence readings from the Cell Titer Glo assay were normalized to the DMSO treated cells and analyzed using the GraphPad Prism software with sigmoidal curve fitting to obtain EC50s.
# [3] = target: T2, first (BD1: amino acids K57-E168) bromodomain of BRD4 (Homo sapiens, UniProt O60885); assay: TR-FRET bromodomain binding assay, BRD4 BD1; conditions: TR-FRET assay protocol (A-G, compound concentration range); Ki calculated from IC50, probe Kd and probe concentration; read-out: TR-FRET Binding Ki: BRD4 (BDI_K57-E168)
# T2 construct: His-tagged first (BD1: amino acids K57-E168)
# Outline: as §1
Compound,Ki [1] [nM],EC50 [2] [nM],Ki [3] [nM]
"Cn1nc(-c2ccccc2Oc2ccccc2)c(-c2ccc(CN3CCNCC3)cc2)cc1=O [Example 70, 2-methyl-6-(2-phenoxyphenyl)-5-[4-(piperazin-1-ylmethyl)phenyl]pyridazin-3(2H)-one]",62,815,89.1
"Cn1nc(-c2ccccc2Oc2ccccc2)c(-c2ccc(CN3CCCC3)cc2)cc1=O [Example 71, 2-methyl-6-(2-phenoxyphenyl)-5-[4-(pyrrolidin-1-ylmethyl)phenyl]pyridazin-3(2H)-one]",133,398,62.2
"CC(O)c1ccc(-c2cc(=O)n(C)nc2-c2ccccc2Oc2ccccc2)cc1 (stereo not drawn) [Example 72, 5-[4-(1-hydroxyethyl)phenyl]-2-methyl-6-(2-phenoxyphenyl)pyridazin-3(2H)-one]",128,3750,225
"CC(C)C(O)c1ccc(-c2cc(=O)n(C)nc2-c2ccccc2Oc2ccccc2)cc1 (stereo not drawn) [Example 73, 5-[4-(1-hydroxy-2-methylpropyl)phenyl]-2-methyl-6-(2-phenoxyphenyl)pyridazin-3(2H)-one]",307,1130,462
"CCC(O)c1ccc(-c2cc(=O)n(C)nc2-c2ccccc2Oc2ccccc2)cc1 (stereo not drawn) [Example 75, 5-[4-(1-hydroxypropyl)phenyl]-2-methyl-6-(2-phenoxyphenyl)pyridazin-3(2H)-one]",195,1390,264
"COCc1ccc(-c2cc(=O)n(C)nc2-c2ccccc2Oc2ccccc2)cc1 [Example 78, 5-[4-(methoxymethyl)phenyl]-2-methyl-6-(2-phenoxyphenyl)pyridazin-3(2H)-one]",211,> 3000,435
"Cn1nc(-c2ccccc2Oc2ccccc2)c(-c2ccc(CO)cc2)cc1=O [Example 79, 5-[4-(hydroxymethyl)phenyl]-2-methyl-6-(2-phenoxyphenyl)pyridazin-3(2H)-one]",87.5,1870,126
"Cn1nc(-c2ccccc2Oc2ccccc2)c(C2=CCN(C(=O)OC(C)(C)C)CC2)cc1=O [Example 81, tert-butyl 4-[1-methyl-6-oxo-3-(2-phenoxyphenyl)-1,6-dihydropyridazin-4-yl]-3,6-dihydropyridine-1(2H)-carboxylate]",733,> 3000,1120
"COC(=O)CCc1ccc(-c2cc(=O)n(C)nc2-c2ccccc2Oc2ccccc2)cc1 [Example 92, methyl 3-{4-[1-methyl-6-oxo-3-(2-phenoxyphenyl)-1,6-dihydropyridazin-4-yl]phenyl}propanoate]",455,1130,770
"Cn1nc(-c2ccccc2Oc2ccccc2)c(-c2ccc(C3=NCCCO3)cc2)cc1=O [Example 95, 5-[4-(5,6-dihydro-4H-1,3-oxazin-2-yl)phenyl]-2-methyl-6-(2-phenoxyphenyl)pyridazin-3(2H)-one]",145,> 3000,172
"Cn1nc(-c2ccccc2Oc2ccccc2)c(-c2ccc(CNS(C)(=O)=O)cc2)cc1=O [Example 98, N-{4-[1-methyl-6-oxo-3-(2-phenoxyphenyl)-1,6-dihydropyridazin-4-yl]benzyl}methanesulfonamide]",71.2,639,216
"CC(=O)NCc1ccc(-c2cc(=O)n(C)nc2-c2ccccc2Oc2ccccc2)cc1 [Example 99, N-{4-[1-methyl-6-oxo-3-(2-phenoxyphenyl)-1,6-dihydropyridazin-4-yl]benzyl}acetamide]",58.7,558,142
"CC(=O)NCCc1ccc(-c2cc(=O)n(C)nc2-c2ccccc2Oc2ccccc2)cc1 [Example 100, N-(2-{4-[1-methyl-6-oxo-3-(2-phenoxyphenyl)-1,6-dihydropyridazin-4-yl]phenyl}ethyl)acetamide]",72.2,> 3000,143
"Cn1nc(-c2ccccc2Oc2ccccc2)c(-c2ccc(CCCO)cc2)cc1=O [Example 101, 5-[4-(3-hydroxypropyl)phenyl]-2-methyl-6-(2-phenoxyphenyl)pyridazin-3(2H)-one]",147,1130,233
"Cn1cc(-c2cc(=O)n(C)nc2-c2ccccc2Oc2ccccc2)cn1 [Example 103, 2-methyl-5-(1-methyl-1H-pyrazol-4-yl)-6-(2-phenoxyphenyl)pyridazin-3(2H)-one]",109,> 3000,253
"CC(=O)Nc1ccc(-c2cc(=O)n(C)nc2-c2ccccc2Oc2ccccc2)cc1 [Example 105, N-{4-[1-methyl-6-oxo-3-(2-phenoxyphenyl)-1,6-dihydropyridazin-4-yl]phenyl}acetamide]",84.7,> 3000,516
"Cn1nc(-c2ccccc2Oc2ccccc2)c(-c2ccc(S(N)(=O)=O)cc2)cc1=O [Example 112, 4-[1-methyl-6-oxo-3-(2-phenoxyphenyl)-1,6-dihydropyridazin-4-yl]benzenesulfonamide]",181,1280,138
"Cn1nc(-c2ccccc2Oc2ccccc2)c(-c2ccc(NS(C)(=O)=O)cc2)cc1=O [Example 119, N-{4-[1-methyl-6-oxo-3-(2-phenoxyphenyl)-1,6-dihydropyridazin-4-yl]phenyl}methanesulfonamide]",63.6,615,135
"CNC(=O)c1ccc(-c2cc(=O)n(C)nc2-c2ccccc2Oc2ccccc2)cc1 [Example 127, N-methyl-4-[1-methyl-6-oxo-3-(2-phenoxyphenyl)-1,6-dihydropyridazin-4-yl]benzamide]",139,> 3000,249
"Cn1nc(-c2ccccc2Oc2ccccc2)c(-c2ccc(N3CCOCC3)cc2)cc1=O [Example 149, 2-methyl-5-[4-(morpholin-4-yl)phenyl]-6-(2-phenoxyphenyl)pyridazin-3(2H)-one]",259,384,213
"CN1CCN(c2ccc(-c3cc(=O)n(C)nc3-c3ccccc3Oc3ccccc3)cc2)CC1 [Example 161, 2-methyl-5-[4-(4-methylpiperazin-1-yl)phenyl]-6-(2-phenoxyphenyl)pyridazin-3(2H)-one]",24.9,244,26.3
"CC(C)N1CCN(c2ccc(-c3cc(=O)n(C)nc3-c3ccccc3Oc3ccccc3)cc2)CC1 [Example 180, 2-methyl-6-(2-phenoxyphenyl)-5-{4-[4-(propan-2-yl)piperazin-1-yl]phenyl}pyridazin-3(2H)-one]",67.7,372,44.5
"CNc1ccc(-c2cc(=O)n(C)nc2-c2ccccc2Oc2ccccc2)cc1 [Example 191, 2-methyl-5-[4-(methylamino)phenyl]-6-(2-phenoxyphenyl)pyridazin-3(2H)-one]",162,1430,324
"Cn1nc(-c2ccccc2Oc2ccccc2)c(-c2cccc(CC#N)c2)cc1=O [Example 193, {3-[1-methyl-6-oxo-3-(2-phenoxyphenyl)-1,6-dihydropyridazin-4-yl]phenyl}acetonitrile]",1010,1290,167
"COC(=O)c1cc(=O)n(C)nc1-c1ccccc1Oc1ccccc1 [Example 218, methyl 1-methyl-6-oxo-3-(2-phenoxyphenyl)-1,6-dihydropyridazine-4-carboxylate]",1140,9700,778
"COC(=O)/C=C/c1cc(=O)n(C)nc1-c1ccccc1Oc1ccccc1 [Example 219, methyl (2E)-3-[1-methyl-6-oxo-3-(2-phenoxyphenyl)-1,6-dihydropyridazin-4-yl]prop-2-enoate]",308,5500,7250
"COC(=O)CCc1cc(=O)n(C)nc1-c1ccccc1Oc1ccccc1 [Example 220, methyl 3-[1-methyl-6-oxo-3-(2-phenoxyphenyl)-1,6-dihydropyridazin-4-yl]propanoate]",1910,16400,24300
"CC(=O)c1cc(=O)n(C)nc1-c1ccccc1Oc1ccccc1 [Example 221, 5-acetyl-2-methyl-6-(2-phenoxyphenyl)pyridazin-3(2H)-one]",517,7200,976
"Cn1cc(-c2ccccc2Oc2ccccc2)ccc1=O [Example 223, 1-methyl-5-(2-phenoxyphenyl)pyridin-2(1H)-one]",872,4810,635
